ChEMBL document CHEMBL5532702, “Coumarin-furo[2,3-d]pyrimidone hybrid molecules targeting human liver cancer cells: synthesis, anticancer effect, EGFR inhibition and molecular docking studies” (RSC Med Chem, 2024)
Activity calls are given as the source filed them. The calls are words filed in the database; no cut-off is given here.

How the values were obtained:
HepG2 [1] = assay: Cytotoxicity against human HepG2 cells assessed as reduction in cell viability incubated for 48 hrs by CCK-8 assay; details: HepG2, 48 h
HepG2 [2] = assay: Inhibition of cell migration in human HepG2 cells at 5.42 to 27.10 micromol/L incubated for 24 hrs by crystal violet staining based microscopic analysis; assay type: functional; details: dose 5.42-27.1 µmol/L
HepG2 [3] = assay: Inhibition of cell invasion in human HepG2 cells at 5.42 to 27.10 micromol/L incubated for 24 hrs by crystal violet staining based microscopic analysis; assay type: functional; details: dose 5.42-27.1 µmol/L

Row | Compound | IC50 (HepG2 [1]) [µM] | inhibition (HepG2 [2]) | inhibition (HepG2 [3])
1 | CCN(CC)c1nc2oc(C)c(C(=O)NNC(=O)c3cc4ccccc4oc3=O)c2c(=O)n1-c1ccc(C)cc1 | > 100 | – | –
2 | CCCN(CCC)c1nc2oc(C)c(C(=O)NN)c2c(=O)n1-c1ccccc1 | 17 | – | –
3 | CCCNc1nc2oc(C)c(C(=O)NNC(=O)c3cc4ccccc4oc3=O)c2c(=O)n1-c1ccc(C)cc1 | 21.8 | – | –
4 | CCCN(CCC)c1nc2oc(C)c(C(=O)NN)c2c(=O)n1-c1ccc(C)cc1 | 8.53 | – | –
5 | CCCCNc1nc2oc(C)c(C(=O)NNC(=O)c3cc4ccccc4oc3=O)c2c(=O)n1-c1ccc(C)cc1 | 14.5 | – | –
6 | CCN(CC)c1nc2oc(C)c(C(=O)NNC(=O)c3cc4ccccc4oc3=O)c2c(=O)n1-c1cccc(C)c1 | 26.5 | – | –
7 | CCCCNc1nc2oc(C)c(C(=O)NN)c2c(=O)n1-c1ccc(C)cc1 | > 100 | – | –
8 | CCN(CC)c1nc2oc(C)c(C(=O)NN)c2c(=O)n1-c1cccc(C)c1 | 36.5 | – | –
9 | CCCCNc1nc2oc(C)c(C(=O)NN)c2c(=O)n1-c1ccccc1 | > 100 | – | –
10 | CCCCNc1nc2oc(C)c(C(=O)NN)c2c(=O)n1-c1cccc(C)c1 | 73.9 | – | –
11 | CCCNc1nc2oc(C)c(C(=O)NN)c2c(=O)n1-c1ccc(C)cc1 | 84.1 | – | –
12 | CNC(=O)c1cc(Oc2ccc(NC(=O)Nc3ccc(Cl)c(C(F)(F)F)c3)cc2)ccn1 [SORAFENIB] | 12.3 | – | –
13 | CCCCNc1nc2oc(C)c(C(=O)NNC(=O)c3cc4ccccc4oc3=O)c2c(=O)n1-c1ccccc1 | 8.74 | – | –
14 | CCN(CC)c1nc2oc(C)c(C(=O)NN)c2c(=O)n1-c1ccccc1 | 30.7 | – | –
15 | Cc1cccc(-n2c(N3CCOCC3)nc3oc(C)c(C(=O)NNC(=O)c4cc5ccccc5oc4=O)c3c2=O)c1 | 26.8 | – | –
16 | Cc1ccc(-n2c(N3CCOCC3)nc3oc(C)c(C(=O)NN)c3c2=O)cc1 | 55.9 | – | –
17 | CCCCNc1nc2oc(C)c(C(=O)NNC(=O)c3cc4ccccc4oc3=O)c2c(=O)n1-c1cccc(C)c1 | 13 | – | –
18 | Cc1oc2nc(N3CCOCC3)n(-c3ccccc3)c(=O)c2c1C(=O)NN | 45.1 | – | –
19 | CCCN(CCC)c1nc2oc(C)c(C(=O)NNC(=O)c3cc4ccccc4oc3=O)c2c(=O)n1-c1ccc(C)cc1 | 22.2 | – | –
20 | Cc1cccc(-n2c(N3CCOCC3)nc3oc(C)c(C(=O)NN)c3c2=O)c1 | 40.8 | – | –
21 | CCN(CC)c1nc2oc(C)c(C(=O)NN)c2c(=O)n1-c1ccc(C)cc1 | 17.2 | Active | Active
22 | CCCN(CCC)c1nc2oc(C)c(C(=O)NNC(=O)c3cc4ccccc4oc3=O)c2c(=O)n1-c1ccccc1 | 14.3 | – | –
23 | CCCNc1nc2oc(C)c(C(=O)NN)c2c(=O)n1-c1ccccc1 | 69.3 | – | –
24 | CCCNc1nc2oc(C)c(C(=O)NNC(=O)c3cc4ccccc4oc3=O)c2c(=O)n1-c1cccc(C)c1 | 24.3 | – | –
25 | CCCNc1nc2oc(C)c(C(=O)NN)c2c(=O)n1-c1cccc(C)c1 | 58.9 | – | –
26 | CCN(CC)c1nc2oc(C)c(C(=O)NNC(=O)c3cc4ccccc4oc3=O)c2c(=O)n1-c1ccccc1 | 7.89 | – | –
27 | Cc1oc2nc(N3CCOCC3)n(-c3ccccc3)c(=O)c2c1C(=O)NNC(=O)c1cc2ccccc2oc1=O | 24.2 | – | –
28 | Cc1ccc(-n2c(N3CCOCC3)nc3oc(C)c(C(=O)NNC(=O)c4cc5ccccc5oc4=O)c3c2=O)cc1 | 40 | – | –
29 | CCCNc1nc2oc(C)c(C(=O)NNC(=O)c3cc4ccccc4oc3=O)c2c(=O)n1-c1ccccc1 | 7.72 | – | –
